Measured values taken from publication PMC6993528, “Dehydroepiandrosterone and Its CYP7B1 Metabolite 7α-Hydroxydehydroepiandrosterone Regulates 11β-Hydroxysteroid Dehydrogenase 1 Directions in Rat Leydig Cells” (Frontiers in Endocrinology, 2020).
Entries after “also recorded” stand apart in the source; their conditions may differ.

Experiments:
11β-HSD1 [1] = biological target: T1, 11β-HSD1 (Rattus norvegicus, UniProt P16232); test: 11β-HSD1 oxidase assay in intact ALCs (CORT to DHC); type: cell-based; conditions: for lowest observable effective level (LOEL) on 11β-HSD1 oxidase activity: 10 nM-10 μM tested
T1 construct: endogenous in cells; host or cells: primary rat adult Leydig cells (ALCs) from 90-day-old rat testes
Source text: (§1) Testes were processed for purification of Leydig cells. The progenitor (PLC), immature (ILC), and adult Leydig cells (ALC) were purified from rat testes at 21, 35, and 90 days postpartum, as described previously ([25], [26]). In brief, forty 21-day-old (for PLCs), eighteen 35-day-old (for ILCs), and six 90-day-old (for ALCs) rats were sacrificed, followed by removal and decapsulation of testes. Then, the testes were digested with collagenase and cells were separated by Percoll density gradient centrifugation. Purities of Leydig cell fractions were evaluated by histochemical staining of 3β-hydroxysteroid dehydrogenase (3β-HSD), with 0.4 mM etiocholanolone as an enzyme substrate ([27]). At least six isolations per cell types were performed.
(§2) 11β-HSD1 oxidase and reductase in intact ALCs were performed as previously described ([15]).11β-HSD1 oxidase activity assay tubes contained 25 nM CORT spiked with 60,000 dpm [^3H]-CORT (a concentration within the range of physiological levels of CORT). 11β-HSD1 reductase activity assay tubes contained 25 nM DHC spiked with 60,000 dpm [^3H]-DHC. 2.5 × 10^4 intact ALCs were added to start the reaction and the reaction was maintained in 34°C and 75 rpm shaking water bath for 30 min. The reactions were stopped by adding 2 ml ice-cold ether. The steroids were extracted, and the organic layer was dried under nitrogen. The steroids were separated chromatographically on thin layer plates in chloroform and methanol (90:10, v/v), and the radioactivity was measured using a scanning radiometer (System AR2000, Bioscan Inc., Washington, DC). The percentage conversion of CORT to DHC and DHC to CORT was calculated by dividing the radioactive counts identified as DHC (or CORT, respectively) by the total counts associated with CORT plus DHC.

11β-HSD1 [2] = biological target: T1, 11β-HSD1; test: 11β-HSD1 reductase assay in intact ALCs (DHC to CORT); type: cell-based; conditions: for lowest observable effective level (LOEL) on 11β-HSD1 reductase activity: 10 nM-10 μM tested
Source text: as §1, §2

11β-HSD1 [3] = biological target: T1, 11β-HSD1; test: 11β-HSD1 oxidase assay in ALC microsomes; type: biochemical
Procedure: (§3) The microsomes from ALCs were prepared as described previously ([6]). In brief, ALCs were homogenized in cold 0.01M PBS, pH 7.2, containing 0.25 M sucrose. Subsequently, the homogenates were centrifuged at 700 × g for 30 min and the supernatants were transferred to other tubes followed by centrifugation at 10,000 × g for 30 min. The resultant supernatants were centrifuged twice at 105,000 × g for 1 h. The pellets were resuspended and the protein contents were determined by Bio-Rad Protein Assay Kit (cat# 500–0006, Bio-Rad, Hercules, CA). Microsomes were used to assay 11β-HSD1 oxidoreductase activities.
(§4) 11β-HSD1 oxidase and reductase in microsomes were performed as previously described ([15]). For measurements in microsomal preparations, microsomes were incubated with 25 nM [^3H]-CORT and 0.2 mM NADP^+ for oxidase or 25 nM [^3H]-DHC and 0.2 mM NADPH for reductase activity in presence of different concentrations of DHEA or 7αOHD. For testing mode of action, microsomes were incubated with 2 nM to 10 μM [^3H]-CORT and 0.2 mM NADP^+ for oxidase or 2 nM to 10 μM [^3H]-DHC and 0.2 mM NADPH for reductase activity. 1.5 μg of ALC microsomes were added to initiate the reaction. The reactions were stopped by adding 2 ml ice-cold ether. The steroids were extracted, and the organic layer was dried under nitrogen. The steroids were separated chromatographically on thin layer plates in chloroform and methanol (90:10, v/v), and the radioactivity was measured using a scanning radiometer (System AR2000, Bioscan Inc., Washington, DC). The percentage conversion of CORT to DHC and DHC to CORT was calculated by dividing the radioactive counts identified as DHC (or CORT, respectively) by the total counts associated with CORT plus DHC.

11β-HSD1 [4] = biological target: T1, 11β-HSD1; test: 11β-HSD1 reductase assay in ALC microsomes; type: biochemical; conditions: for LOEL on 11β-HSD1 reductase activity in ALC microsomes: 10 nM-10 μM tested
Procedure: as §3, §4

[5] = ALC microsomes, 0, 1 and 10 μM, Lineweaver-Burk plot

T1 sequence (P16232 whole entry): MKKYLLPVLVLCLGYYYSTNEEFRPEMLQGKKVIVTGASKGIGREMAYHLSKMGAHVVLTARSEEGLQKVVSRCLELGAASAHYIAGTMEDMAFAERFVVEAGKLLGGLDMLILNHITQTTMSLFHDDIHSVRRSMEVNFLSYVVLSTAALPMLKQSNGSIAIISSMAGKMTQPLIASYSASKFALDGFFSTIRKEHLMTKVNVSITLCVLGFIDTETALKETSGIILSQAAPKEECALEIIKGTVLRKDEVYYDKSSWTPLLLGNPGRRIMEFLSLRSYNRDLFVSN

For C[C@]12CC[C@H](O)CC1=C[C@@H](O)[C@@H]1[C@@H]2CC[C@]2(C)C(=O)CC[C@@H]12 [7αOHD, 7α-hydroxydehydroepiandrosterone], the “lowest observable effective level (LOEL) on 11β-HSD1 oxidase activity” value (11β-HSD1 [1]; intact ALCs) was 100 nM, the IC50 (11β-HSD1 [1]; intact ALCs, 25 nM CORT, 0.5 h, Mean ± SEM (n = 4), read-out: IC50 for inhibition of 11β-HSD1 oxidase, intact Leydig cells) was 1180 ± 120 nM and the 11β-HSD1 oxidase activity (11β-HSD1 [1]; intact ALCs, at 1 μM) was 60 % of control. The 11β-HSD1 oxidase/reductase ratio (11β-HSD1 [1]; intact ALCs, at 1 μM) was 50 % of control, the 11β-HSD1 oxidase activity (11β-HSD1 [1]; intact ALCs, at 10 μM) was 25 % of control and the 11β-HSD1 oxidase/reductase ratio (11β-HSD1 [1]; intact ALCs, at 10 μM) was 20 % of control. For the same compound, the “lowest observable effective level (LOEL) on 11β-HSD1 reductase activity” value (11β-HSD1 [2]; intact ALCs) was 100 nM, the EC50 (11β-HSD1 [2]; intact ALCs, 25 nM DHC, 0.5 h, Mean ± SEM (n = 4), read-out: EC50 for stimulation of 11β-HSD1 reductase, intact Leydig cells) was 700 ± 40 nM and the 11β-HSD1 reductase activity (11β-HSD1 [2]; intact ALCs, at 1 μM) was 200 % of control. For the same compound, the 11β-HSD1 reductase activity (11β-HSD1 [2]; intact ALCs, at 10 μM) was 200 % of control, the “mode of action on 11β-HSD1 oxidase” value (11β-HSD1 [3]; [5]) was “competitive inhibitor” and the “LOEL on 11β-HSD1 oxidase activity in ALC microsomes” value (11β-HSD1 [3]; ALC microsomes, 10 nM-10 μM tested) was 100 nM. The “EC50/IC50 for 11β-HSD1 oxidase, microsome” value (11β-HSD1 [3]; ALC microsomes, 25 nM CORT plus 0.2 mM NADP+, ND, not detected, Mean ± SEM (n = 4)) was 0.93 ±0.14 ×10^−6 M, the IC50 (11β-HSD1 [3]; ALC microsomes, 25 nM CORT plus 0.2 mM NADP+, read-out: IC50 for inhibiting 11β-HSD1 oxidase activity in ALC microsomes) was 930 nM and the “11β-HSD1 oxidase activity in ALC microsomes” value (11β-HSD1 [3]; at 1 μM) was 60 % of control. For the same compound, the “11β-HSD1 oxidase activity in ALC microsomes” value (11β-HSD1 [3]; at 10 μM) was 25 % of control, the “11β-HSD1 oxidase/reductase ratio in ALC microsomes” value (11β-HSD1 [3]; at 0.1–10 μM) was “significantly decreased” and the “LOEL on 11β-HSD1 reductase activity in ALC microsomes” value (11β-HSD1 [4]; ALC microsomes) was 100 nM. The EC50 (11β-HSD1 [4]; ALC microsomes, 25 nM DHC plus 0.2 mM NADPH, Mean ± SEM (n = 4), read-out: EC50 for stimulation of 11β-HSD1 reductase, microsome) was 200 ± 10 nM and the “effect on 11β-HSD1 reductase activity in ALC microsomes at the highest concentration” value (11β-HSD1 [4]; at the highest concentration (100 nM)) was “did not affect”.

In the case of C[C@]12CC[C@H](O)CC1=CC[C@@H]1[C@@H]2CC[C@]2(C)C(=O)CC[C@@H]12 [DHEA, dehydroepiandrosterone], the EC50 (11β-HSD1 [1]) is reported as 970 ± 100 nM, the “lowest observable effective level (LOEL) on 11β-HSD1 oxidase activity” value (11β-HSD1 [1]; intact ALCs) is reported as 100 nM and the 11β-HSD1 oxidase activity (11β-HSD1 [1]; intact ALCs, at 10 μM) is reported as 300 % of control. For the same compound, the “increase of 11β-HSD1 oxidase/reductase ratio” value (11β-HSD1 [1]; intact ALCs, at 10 μM) was 26 folds, the IC50 (11β-HSD1 [2]) was 1040 ± 60 nM and the “lowest observable effective level (LOEL) on 11β-HSD1 reductase activity” value (11β-HSD1 [2]; intact ALCs) was 100 nM. For the same compound, the 11β-HSD1 reductase activity (11β-HSD1 [2]; intact ALCs, at 10 μM) was 12 % of control, the “effect on microsomal 11β-HSD1 oxidase activity” value (11β-HSD1 [3]; ALC microsomes, 10 nM-10 μM) was “did not affect; also recorded: nearly unchanged” and the “effect on microsomal 11β-HSD1 oxidase activity at 10 μM” value (11β-HSD1 [3]; ALC microsomes, at 10 μM) was “inhibited”. The “11β-HSD1 oxidase/reductase ratio in ALC microsomes” value (11β-HSD1 [3]; at 1 and 10 μM) was “significantly higher than control”, the “mode of action on 11β-HSD1 reductase” value (11β-HSD1 [4]; [5]) was “potent competitive inhibitor” and the “LOEL on 11β-HSD1 reductase activity in ALC microsomes” value (11β-HSD1 [4]; ALC microsomes) was 100 nM. For the same compound, the “11β-HSD1 reductase activity in ALC microsomes” value (11β-HSD1 [4]; at 10 μM) was 25 % of control.
